Measurements as given in publication PMC1890308, “Anti-calmodulins and Tricyclic Adjuvants in Pain Therapy Block the TRPV1 Channel” (PLoS ONE, 2007).
Where “and” joins values, the source holds several entries; their conditions need not be identical. Equal entries are not always repeated. Entries after “also recorded” stand apart in the source; their conditions may differ. Where two headings read alike, the source gives them in different places. Ends that are not written are not given here.

Key:
[1] = biological target: T1, rat TRPV1 (Rattus norvegicus, UniProt O35433); test: capsaicin-induced 45Ca2+-uptake in TRPV1-NIH3T3 cells; assay type: cell-based; details: for IC50 / antagonist activity on capsaicin-induced Ca2+-uptake (in words): 2 µM capsaicin; for IC50: 10 min, 2×10^−5 M extracellular Ca2+, room temperature; for kinetics of Ca2+-transport inhibition: increasing concentrations of capsaicin; for effect on Ca2+-uptake at low concentrations in the presence of capsaicin: 2 mM capsaicin (so in the source)
T1 construct: expressed in transfected cells
Procedure: Assays were carried out in 2×10^−5 M extracellular Ca^2+ in 96 well plate formats at room temperature (22°C) for 10 min with robotic liquid handling. […] We hypothesized that calmodulin antagonists and some registered drugs may exert their blocking effect with another mechanisms on TRPV1 and not necessarily on their conventional target.
TRPV1-NIH3T3 mouse fibroblast line, ectopically expressing the rat TRPV1 was established previously.
(§1) Vanilloid agonist inducible calcium transport was assayed in adherent cell lines ectopically expressing the C-terminally ε-tagged rat TRPV1 (3×10^4 cells/well) and primary cultures prepared from embryonic DRG, seeded in poly-D lysine/collagen coated 96 well plates. […] The previously established cell lines and standardized DRG cultures were extensively characterized for functional cell-based TRPV1 studies [1]–[4]. Immediately before the transport assay, cells were adapted to room temperature (20°C) for 5 min in HCM. ^45Ca^2+-uptake was performed for 10 min at 20°C in HCM using 0.1 µCi ^45Ca^2+ as radioactive tracer in a 100 µl final volume. To stop ^45Ca^2+-uptake, cells were rapidly changed back into 0.2 ml HCM, washed 4 additional times with 0.2 ml HCM, and then lysed in 80 µl/well RIPA buffer (50 mM Tris-HCl, pH 7.5, 150 mM NaCl, 1% Triton X-100, 0.5% deoxycholate, 0.1% SDS, 5 mM EDTA) for 30 min [1]–[4]. Aliquots of the solubilized cell extracts were mixed with 120 µl Microscint-40 and counted in a 96 well plate liquid scintillation counter (TopCount-NXT, Packard).

[2] = test system: intermediate Ca2+-activated K+ channels (IKCa); details: human erythrocytes; cited from earlier work
[3] = biological target: TRPV1 (Rattus norvegicus, UniProt O35433); test: capsaicin-induced 45Ca2+-uptake in primary rat embryonic DRG cultures; assay type: cell-based; set-up: sensory neurons, expressing TRPV1 endogenously; endogenous in cells; host or cells: primary cultures of embryonic rat dorsal root ganglia (E14, E16); details: rat embryonic DRG cultures
Procedure: Primary cultures were prepared from embryonic (E14) rat DRGs. Along with calmidazolium other polycyclic compounds were included in the vanilloid-induced ^45Ca^2+-transport assays.
Primary DRG cultures were prepared from E16 embryonic rats as described previously then plated in 15 cm Petri dishes for 4 h to remove the most adherent fibroblasts. For Ca^2+-uptake studies primary afferents neurons cultured in 96 well plates (3×10^3 cells/well), coated with poly-D lysine/collagen, which yielded both axons and dendrites bearing neurons due to neuronal growth factor supplementation in the culture medium [1]–[4]. The dendrites are large processes branching from the cell body that taper in diameter further from the cell body. The axons are a constant diameter and project over long distances from the cell body. Before the ion transport experiment, culture medium was removed and cells were washed three times. ^45Ca-uptake assays were carried out in “nominally zero Ca^2+” (i.e. 2×10^−5 M extracellular Ca^2+ ([Ca^2+]o) in 25 mM Tris-HCl buffered Hanks' balanced salt solution (pH 7.5), supplemented with 10 µM CaCl2 and 0.8 mM MgCl2medium (HCM) [1]–[4].
as §1

[4] = test system: formalin-induced pain; set-up: method as in PMID 8883861; details: rat, intrathecal; cited from earlier work
[5] = test system: heat-induced tail-flick; set-up: method as in PMID 8883861; details: cited from earlier work
[6] = biological target: rat TRPV1 (vanilloid inducible Ca2+-channel/inflammatory pain receptor 1), C-terminally ε-tagged, in TRPV1-NIH3T3 cells (rat) (UniProt O35433)
[7] = biological target: rat TRPV1 (vanilloid inducible Ca2+-channel/inflammatory pain receptor 1), C-terminally ε-tagged, in TRPV1-NIH3T3 cells (rat) (UniProt O35433); remark: listed apart in the source
[8] = read-out: IC50, inhibition of capsaicin-induced 45Ca2+-uptake

TRPV1, sequence (O35433 whole entry): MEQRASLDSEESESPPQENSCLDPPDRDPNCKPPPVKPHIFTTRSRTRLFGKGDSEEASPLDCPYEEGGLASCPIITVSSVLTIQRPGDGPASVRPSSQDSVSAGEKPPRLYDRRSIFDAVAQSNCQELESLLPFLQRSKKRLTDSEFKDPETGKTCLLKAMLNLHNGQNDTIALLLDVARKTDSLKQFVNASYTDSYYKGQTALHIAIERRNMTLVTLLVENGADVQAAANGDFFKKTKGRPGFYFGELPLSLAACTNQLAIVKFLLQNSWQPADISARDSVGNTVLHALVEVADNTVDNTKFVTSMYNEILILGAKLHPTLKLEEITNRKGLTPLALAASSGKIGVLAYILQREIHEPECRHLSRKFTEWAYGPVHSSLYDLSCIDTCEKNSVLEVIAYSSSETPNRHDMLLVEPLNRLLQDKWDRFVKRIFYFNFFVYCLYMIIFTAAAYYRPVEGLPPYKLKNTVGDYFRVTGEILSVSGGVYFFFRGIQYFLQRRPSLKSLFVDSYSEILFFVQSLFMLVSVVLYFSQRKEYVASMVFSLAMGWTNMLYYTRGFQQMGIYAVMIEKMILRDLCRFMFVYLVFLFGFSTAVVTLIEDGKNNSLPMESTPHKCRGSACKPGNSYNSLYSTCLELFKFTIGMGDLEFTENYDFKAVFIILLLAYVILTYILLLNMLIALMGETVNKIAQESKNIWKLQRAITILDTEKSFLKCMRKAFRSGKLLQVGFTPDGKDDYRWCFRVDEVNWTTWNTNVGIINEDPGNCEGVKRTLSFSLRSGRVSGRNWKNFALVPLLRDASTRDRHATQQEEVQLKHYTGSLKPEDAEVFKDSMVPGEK
T1 sequence (O35433 whole entry): as above
rat TRPV1 (vanilloid inducible Ca2+-channel/inflammatory pain receptor 1), C-terminally ε-tagged, in TRPV1-NIH3T3 cells (rat), sequence (O35433 whole entry): as above

For `CN(C)CCC=C1c2ccccc2CCc2ccccc21` [amitriptyline], the IC50 [1, 8] was ~60 µM and 60 µM.
In the case of `CN1CCN(CCCN2c3ccccc3Sc3ccc(C(F)(F)F)cc32)CC1` [trifluoperazine], the “antagonist activity on capsaicin-induced Ca2+-uptake (in words)” value (“antagonist activity” for short) [1] is given as “full antagonists”, the IC50 [1, 8] is given as 9 µM and < 10 µM and the “activity on IKCa channels (in words)” value [2] is given as “inactive”.
In the case of `NC(=O)N1c2ccccc2C=Cc2ccccc21` [carbamazepine], the “antagonist activity” value [1] is reported as “inactive” and the “antagonist activity” value ([1]; listed as Carbamazepine) is reported as “completely inactive”.
With `CN(C)CCCN1c2ccccc2Sc2ccc(Cl)cc21` [chlorpromazine] the “antagonist activity” value [1] was “full antagonists”, the IC50 [1, 8] was 70 µM and the “kinetics of Ca2+-transport inhibition” value [1] was “non-competitive inhibition kinetics”.
For `Fc1ccc(C(c2ccc(F)cc2)N2CCN(C/C=C/c3ccccc3)CC2)cc1` [flunarizine], the “blocking activity on capsaicin-induced Ca2+-uptake (in words)” value (shortened to “blocking activity”) [3] was “partially active; also recorded: partial blocking activity”.
With `COc1cc(CNC(=O)CCCC/C=C/C(C)C)ccc1O` [capsaicin] the ED100 for capsaicin-induction ([1]; pH 7.5) was about 1 µM.
`Fc1cc(F)cc(C[n+]2ccn(CC(OCc3ccc(Cl)cc3Cl)c3ccc(Cl)cc3Cl)c2)c1` (stereo not drawn) [M1, Miconazole 1] showed an IC50 [1, 8] of 8 µM.
With `N=C(N)NCCC[C@H](NC(=O)COCC(c1ccccc1)c1ccccc1)C(=O)O` [SB 290157, N2-[(2,2-Diphenylethoxy)acetyl]-L-arginine] the “blocking activity” value [3] was “partial blocking activity”.
For `Oc1cc2c(cc1O)CN(C(=S)NCCc1ccc(Cl)cc1)CCC2` [capsazepine], the “kinetics of Ca2+-transport inhibition” value [1] was “shifted the capsaicin dose-response curves right”.
In the case of APETERAAVAIQAQFRKFQKKKAGS [camstatin], the IC50 ([1]; IC50, inhibition of capsaicin-induced 45Ca2+-uptake) is reported as 11 µM and 20 µM.
In the case of `NCC1(CC(=O)O)CCCCC1` [gabapentine], the “antagonist activity” value [1] is reported as “partial inhibition”.
In the case of `NCCCCCCNS(=O)(=O)c1cccc2c(Cl)cccc12` [W-7, N- 6 – aminohexyl – 5 – chloro - 1 naphtalenesulfonamide], the “analgesia in both phases of formalin tests” value [4] is listed as “analgesic”, the “antagonist activity” value [1] is listed as “partial or weak inhibitors” and the IC50 [1, 8] is listed as about 200 µM. The “effect on Ca2+-uptake at low concentrations in the presence of capsaicin” value (from here on “effect on Ca2+-uptake”) [1] was “increased Ca^2+-uptake”, the “effect on heat-induced tail-flick latency” value [5] was “inhibit” and the “activity on IKCa channels (in words)” value [2] was “inactive”.
In the case of Camstatin (peptide), the inhibition of capsaicin (2 µM)-induced 45Ca2+-uptake in intact TRPV1-NIH3T3 cells, 10 min, camstatin co-incubated in the uptake medium [6] is reported as 11 µM and the inhibition of capsaicin-induced Ca2+-uptake in TRPV1-NIH3T3 cells [7] is reported as 20 µM.
With `NCCCCNS(=O)(=O)c1ccc2c(Cl)cccc2c1` [W-13, N - (4 - Aminobutyl) – 5 - chloro-2-naphthalenesulfonamide] the “antagonist activity” value [1] was “partial or weak inhibitors”, the IC50 [1, 8] was over 300 µM and the “effect on Ca2+-uptake” value [1] was “increased Ca^2+-uptake”.
With `OCCN1CCN(CCCN2c3ccccc3Sc3ccc(C(F)(F)F)cc32)CC1` [fluphenazine] the “antagonist activity” value [1] was “partial or weak inhibitors”, the IC50 [1, 8] was about 250 µM and the “effect on Ca2+-uptake” value [1] was “increased Ca^2+-uptake”.
With `O=C1CSC(c2ccccc2Cl)c2cc(Cl)ccc2N1` (stereo not drawn) [CGP-37157, 7-Chloro - 5 - (2 - chlorophenyl) - 1,5 - dihydro - 4,1 – benzothiazepin - 2(3H) - one] the “blocking activity” value [3] was “partially active” and the “blocking activity” value ([3]; listed as CGP 37157) was “partial blocking activity”.
Work on `Clc1ccc(COC(Cn2cc[n+](CC3CCCCC3)c2)c2ccc(Cl)cc2Cl)c(Cl)c1` (stereo not drawn) [M2, Miconazole 2] yielded an IC50 [1, 8] of 8 µM.
